# Source: BindingDB's records for doi:10.1016/s0960-894x(02)00627-3 (Keio University, 2002)
# Tests used:
# [1] = molecular target: alpha-L-fucosidase (Bos taurus); assay: Inhibition of bovine kidney alpha-L-fucosidase
# [2] = molecular target: alpha-L-fucosidase (Bos taurus); assay: Binding affinity against alpha-L-fucosidase in bovine kidney was determined
# [3] = molecular target: alpha-L-fucosidase (Bos taurus); assay: as above; remark: listed apart in the source
Ki [2] [nM],Compound,IC50 [1] [nM],Ki [3] [nM]
69,"CC1CC(NCc2ccccc2)C(O)C(O)C1O [(1R,2S,3S)-4-Benzylamino-6-methyl-cyclohexane-1,2,3-triol]",1000,–
–,"CCCCNC1CC(C)C(O)C(O)C1O [(1R,2S,3S)-4-Butylamino-6-methyl-cyclohexane-1,2,3-triol]",920,74
–,"CCNC1CC(C)C(O)C(O)C1O [(1R,2S,3S)-4-Ethylamino-6-methyl-cyclohexane-1,2,3-triol]",21000,180
–,"CCCCCCCNC1CC(C)C(O)C(O)C1O [(1R,2S,3S)-4-Heptylamino-6-methyl-cyclohexane-1,2,3-triol]",270,48
–,"CCCCCCCCCNC1CC(C)C(O)C(O)C1O [(1S,2S,3R)-4-Methyl-6-nonylamino-cyclohexane-1,2,3-triol]",240,110
–,"CC1CC(NCCc2ccccc2)C(O)C(O)C1O [(1S,2S,3R)-4-Methyl-6-phenethylamino-cyclohexane-1,2,3-triol]",240,32
–,"CC1CC2N=C(NCc3ccccc3)OC2C(O)C1O [(6R,7S,7aS)-2-Benzylamino-5-methyl-3a,4,5,6,7,7a-hexahydro-benzooxazole-6,7-diol]",72000,–
–,"CCCCNC1=NC2CC(C)C(O)C(O)C2O1 [(6R,7S,7aS)-2-Butylamino-5-methyl-3a,4,5,6,7,7a-hexahydro-benzooxazole-6,7-diol]",140000,–
–,"CC1CC2N=C(Nc3ccccc3)OC2C(O)C1O [(6R,7S,7aS)-5-Methyl-2-phenylamino-3a,4,5,6,7,7a-hexahydro-benzooxazole-6,7-diol]",7600,–
